Reference: patent publication US11661453B2 (Tesaro, Inc., priority 2017, dated 2023)

Legend:
[1] = system: MDA-MB-436, CAPAN-1, GRANTA-519, OVCAR3, HT29, DLD-1, patient derived Ewing's sarcoma and TNBC xenograft models; conditions: xenograft models in mice; cited from earlier work
[2] = system: selected Ewing's sarcoma, ALL, NSCLC and SCLC cell lines, tumor cell lines carrying homozygous inactivation of the ATM gene; conditions: cited from earlier work
[3] = system: KrasG12D and PTEN null bladder (BL6078); assay: Tumor growth inhibition, Kras G12D and PTEN null bladder model; conditions: mouse, in vivo
From the text: (§1) A panel of 14 syngeneic or humanized xenograft models representing BRCA-proficient (wild-type) and BRCA-deficient (mutant) cancers derived from breast, lung, ovary, skin, sarcoma, bladder and colon tumors was established. The panel included the following genetically engineered mouse tumor models: 1) KrasG12D and PTEN null bladder (BL6078), 2) TP53 null sarcoma (SA9003), 3) MMTV-LPA1 breast (LPA-T22), 4) BRCA1 mutant breast (MDA-MB-436; also referred to as MM-436), 5) APC^Min heterozygous mutant skin (SK6005), and 6) BRCA1−/−, TP53−/−, KrasG12D ovarian (BRKras) models. While the bladder syngeneic model was BRCA1 wild-type, the sarcoma model harbored BRCA1 A122E and S123X heterozygous mutations. Specifically, mice were administered treatments after tumors reached 50-150 mm^3. […] The suboptimal dose administered for specific tumor models was as follows: 35 mg/kg daily for 5 consecutive days per week (QD×5/week) for the BR1126 tumor model, 35 mg/kg (QD×5/week) for the MDA-MB-436 tumor model, 30 mg/kg for the BRKras tumor model, and 25 mg/kg daily for the SK6005 tumor model. The anti-PD-1 antibody (RMP1-14/2C4) or the anti-PD-L1 antibody (10F.9G2) was administered twice weekly intraperitoneally at 10 mg/kg dose unless otherwise noted. […] Tumor growth was monitored twice per week.

[4] = system: cancer cell lines that have been silenced for BRCA-1 or BRCA-2, or carry BRCA-1 or BRCA-2 mutations; conditions: cited from earlier work
DLD1 BRCA2−/− cells = conditions: 300 nM for 24 or 48 hours
From the text: (§2) The cells were subsequently analyzed for expression of Stimulator of Interferon Genes (STING) pathway proteins via Western blotting.

MDA-MB-436 cells = system: MDA-MB-436 cells
From the text: as §2

[5] = system: TP53 null sarcoma (SA9003); assay: Tumor growth inhibition, TP53 null sarcoma model; assay type: in vivo, mouse; conditions: niraparib orally once daily, antibody intraperitoneally twice weekly
From the text: as §1

[6] = system: MMTV-LPA1 breast (LPA-T22); assay: Tumor growth inhibition, syngeneic MMTV-LPA1 breast model; assay type: in vivo, mouse; conditions: niraparib orally once daily, antibody intraperitoneally twice weekly
From the text: as §1

PARP activity = PARP activity stimulated by DNA damage caused by hydrogen peroxide, various cell lines, cited from earlier work
normal human cells = conditions: cited from earlier work
[7] = system: non-small-cell lung cancer, melanoma, and renal-cell cancer; conditions: Phase I clinical trial; cited from earlier work

| Compound | antitumor activity in vivo [1] | cytotoxicity [2] | response to monotherapy [3] | consequence on cell cycle ([4]; BRCA-defective cells) | anti-proliferative activity ([4]; compared to wild type counterparts) | mRNA expression of type-I interferon (IFNB1 or IFNA1) (DLD1 BRCA2−/− cells) | mRNA expression of type-I interferon (IFNB1) (MDA-MB-436 cells; 300 nM for 24 or 48 hours) | expression of STING pathway proteins (p-STING, STING, p-TBK1, TBK1, p-NF-κB p65, NF-κB p65) (MDA-MB-436 cells; 1 μM for 48 hours, Western blotting) | tumor growth inhibition (TGI) [5] [%] | tumor growth inhibition (TGI) [6] [%] | IC50 (PARP activity; read-out: IC50 of PARP activity in cell lines) [nM] | IC90 (PARP activity; read-out: inhibitory concentration at 90% of control (IC90) of PARP activity in cell lines) [nM] | activity on normal human cells (normal human cells) | clinical response [7] |
| --- | --- | --- | --- | --- | --- | --- | --- | --- | --- | --- | --- | --- | --- | --- |
| NC(=O)c1cccc2cn(-c3ccc([C@@H]4CCCNC4)cc3)nc12 [Niraparib, (3 S)-3-[4-{7-(aminocarbonyl)-2H-indazol-2-yl}phenyl]piperidine] | strong antitumor activity | selectively cytotoxic | neither responsive | cell cycle arrest in G2/M followed by apoptosis | selective anti-proliferative activity | detected | detected | expression of STING pathway proteins | 1 | 45 | ~4 | ~50 | weak activity | – |
| nivolumab: anti-PD-1 monoclonal antibody (Human IgG4) | – | – | – | – | – | – | – | – | – | – | – | – | – | complete or partial responses |
